From patent publication US8927561B2, “Pyrimidinedione anti-viral compounds” (Kineta, Inc., priority 2010, dated 2015)

Assays:
[1] = tested on: influenza A virus (A/WSN/33); assay: microbe, parasite or virus in culture; format: cell-based
Experimental: (§1) Chemical analogs of KIN500 are tested for in vitro antiviral activity against HCV genotype 2A and influenza A virus (A/WSN/33). Viral protein and RNA levels are assessed following drug treatment using the assays described above.

[2] = tested on: Murine Encephalomyocarditis virus (EMCV); assay: EMCV antiviral assay (MTS cell viability); format: cell-based; settings: Huh7 cells, EMCV 250 pfu, 18 h post-infection
ISG expression = ISG expression enhancement; format: cell-based
HCV genotype 2A = assay: HCV focus-forming assay (FFA); format: cell-based; settings: Hepatitis C virus
Experimental: as §1

COc1ccc(NC(=O)Cn2c(=O)n(Cc3ccco3)c(=O)c3sc4ccccc4c32)c(OC)c1 [KIN500, 2-[3-(furan-2-ylmethyl)-2,4-dioxo-3,4-dihydro[1]benzothieno[3,2-d]pyrimidin-1(2H)-yl]-N-(2,4-methoxyphenyl)acetamide]
Therapeutic index (TI) (CC50/IC50) ([1]; CC50/IC50): 11
IC50 ([1]; Influenza A virus, WSN, read-out: Influenza nucleoprotein (NP) ELISA (IC50)): 4.6 µM
CC50 (in vitro): > 50 µM
Cell viability post-infection ([2]; 5 μM): ~0.75
Cell viability post-infection ([2]; 10 μM): ~1.0
Cell viability post-infection ([2]; 20 μM): ~1.05
enhancement of ISG expression (ISG expression): 18 fold
IC50 (HCV genotype 2A): 19.1 µM
